Measured values from US8778616B2, “Method of using CCR3 binding agents to detect choroidal neovascularization” (University of Kentucky Research Foundation, priority 2009, dated 2014).

B1: CCL24: CCR3 ligand eotaxin-2, recombinant human (Peprotech) (protein, UniProt O00175 27-119, looked up)
C-C motif chemokine 24: VVIPSPCCMFFVSKRIPENRVVSYQLSSRSTCLKAGVIFTTKKGQQFCGDPKQEWVQRYMKNLDAKQKKASPRARAVAVKGPVQRYPGNQTTC

Key:
CCR3 = CCR3 bioimaging: fundus angiography after intravenous injection; format: in vivo, mouse; settings: wild-type and Ccl2−/−×Ccr2−/− mice
Protocol: CCR3 bioimaging. F(ab) fragments were created from monoclonal IgG2a antibody raised against the extracellular domain of murine CCR3 (R&D Systems) and an isotype rat IgG2a (R&D Systems) using a commercially available papain-based kit (Pierce). Recovered fragments were conjugated with quantum dots (Invitrogen, QDot-800) and resuspended in sterile PBS. Ccl2^−/−×Ccr2^−/− mice were administered 100 μg of tagged CCR3 F(ab) or isotype F(ab) via tail vein injection after acquiring baseline fluorescent imaging using a Topcon retinal camera (TRC-50IX). Serial images were then acquired at 1, 4, and 12 h after which eyes were harvested and frozen in OCT for immunofluorescent analyses. Retinal images were analyzed (ImageNet, Topcon) by comparison to baseline and fluorescein angiographic data. Hyperfluorescent areas were then cropped, equally thresholded, and pseudocolored (Photoshop CS3, Adobe). Sections from QDot-conjugated CCR3 or rat IgG2a isotype F(ab) injected animals were fixed in 4% paraformaldehyde and blocked with 5% normal donkey serum/5% goat serum in PBS, stained with rat anti-mouse CD31 (BD Biosciences) and either rabbit anti-mouse CCR3 (Santa Cruz) or rabbit anti-Ki67 (Abcam) followed by appropriate fluorescent secondary antibodies (Alexa Fluor 488/594, Invitrogen), and evaluated by confocal laser scanning microscopy (Leica SP-5).

laser-induced CNV [1] = test: Laser-induced CNV in wild-type mice; format: in vivo, mouse; settings: single intraocular administration after laser injury, versus isotype IgG or vehicle
Protocol: (§1) Mouse model of CNV. Laser photocoagulation (OcuLight GL, Iridex Corporation) was performed on mouse eyes to induce CNV, and CNV volumes were measured 7 days after injury by scanning laser confocal microscope (TCS SP, Leica) as previously described (Kleinman, et al., Nature. 452, 591-597 (2008)). Drug injections. Rat IgG2a neutralizing antibody against mouse CCR3 (R&D Systems), control rat IgG2a (Serotec), goat neutralizing antibody against mouse CCL11 (R&D Systems), goat neutralizing antibody against mouse CCL24 (R&D Systems), control goat IgG (Jackson Immunoresearch), or (S)-Methyl-2-naphthoylamino-3-(4-nitrophenyl)propionate (SB328437; Calbiochem) dissolved in DMSO were injected into the vitreous humor using a 33-gauge double-calibre needle (Ito Corporation) once, immediately after laser injury as previously described (Kleinman, et al., (2008) supra).
Drug injections. […]

laser-induced CNV [2] = test: Laser-induced CNV in Ccr3−/− mice (specificity of CCR3 blockade); format: in vivo, mouse; settings: n=5, P>0.1
Protocol: as §1
Animals. All animal experiments were in accordance with the guidelines of the University of Kentucky IACUC and the Association for Research in Vision and Ophthalmology. C57BL/6J and Kit^W-v/Kit^W-v mice were purchased from The Jackson Laboratory. […]

retina = test: Retinal toxicity by fundus imaging and electroretinography; format: in vivo; settings: wild-type mice, fundus imaging and electrophysiological function; anti-VEGF-A: repeated intravitreous administration
Protocol: Electroretinography. Mice were dark adapted overnight and then anesthetized. Both eyes were positioned within a ColorBurst Ganzfeld stimulator (Diagnosys). Espion software (Diagnosys) was used to program a fully automated flash intensity series from which retinal responses were recorded.

human CECs [3] = test: Proliferation assay (BrdU ELISA); format: cell-based; settings: 24 h stimulation; CCL11 10 ng/ml, CCL24 100 ng/ml, CCL26 2 μg/ml; versus BSA
Protocol: Proliferation assay. Human CECs were synchronized for cell cycle state by first cultivating them in EGM2-MV media (Lonza) supplemented with 10% FBS (Gibco) to achieve complete confluence and then by overnight serum starvation in MCDB131 media (Gibco) with 0.1% FBS. They were passaged to 96-well plates at a density of 5,000 cells per well, followed by stimulation for 24 h with eotaxin-1, 2 or 3 (10 ng, 100 ng and 2 μg per ml, respectively; Peprotech) in MCDB131 media with 0.1% FBS. After 24 h, cell viability was measured with BrdU ELISA (Chemicon) according to manufacturer's instructions.

human CECs [4] = test: F-actin polymerization assay; format: cell-based; settings: CCL11 10 ng/ml, CCL24 100 ng/ml, CCL26 2 μg/ml; versus PBS
Protocol: F-actin Polymerization Assay. Human CECs were seeded in black-walled 96-well plates and grown to 70-80% confluence in fully supplemented EGM-2MV. Cultures were serum starved overnight in basal media and then stimulated with recombinant human eotaxin-1 (10 ng/ml), eotaxin-2 (100 ng/ml), eotaxin-3 (2 μg/ml) (Peprotech), or vehicle control (PBS). At 0, 10, 30, 60, or 120 sec time-points, cells were fixed in 3.7% paraformaldehyde for 10 min, washed, permeabilized in PBS with 0.1% Triton-X, and then stained with rhodamine labelled Phalloidin (1:200, Invitrogen) per manufacturer's recommendations. Plates were analyzed on a fluorescent plate reader (Synergy 4, Biotek) followed by fluorescent microscopy (Nikon E800).

Rac-1 = Rac-1 activation pull-down assay; format: cell-based; settings: human CECs; CCL11 10 ng/ml, CCL24 100 ng/ml, CCL26 2 μg/ml; versus unstimulated (0 s) cells
Protocol: Rac-1 activation. Human CECs were cultured in EGM-2 MV containing 5% FBS. Prior to starting the assay, cells were serum starved with basal medium (MCDB131) supplemented with 1% FBS overnight. Cells were stimulated for designated times with Eotaxin-1, 2 and 3 (10 ng/ml, 100 ng/ml and 2 μg/ml respectively). Equal amounts of lysates (500 μg) were incubated with GST-Pak1-PBD agarose beads (Upstate) to pull-down active GTP-bound Rac-1 at 4° C. for 1 h with rotation. The samples were subsequently analyzed for bound Rac-1 by western blot analysis using an anti-Rac-1 antibody (Upstate).

| Molecule | hyperfluorescence indicative of CNV on fluorescein angiography (CCR3) | laser-induced CNV (effect in words) (laser-induced CNV [1]) | laser-induced CNV (effect in words) (laser-induced CNV [1]; listed as (S)-Methyl-2-naphthoylamino-3-(4-nitrophenyl)propionate) | CNV in Ccr3−/− mice (laser-induced CNV [2]) | retinal toxicity (retina) | human CEC proliferation (human CECs [3]) | actin polymerization in human CECs (human CECs [4]) | active (GTP-bound) Rac-1 GTPase levels (Rac-1) |
| --- | --- | --- | --- | --- | --- | --- | --- | --- |
| O=C([O-])c1ccccc1-c1c2ccc(=O)cc-2oc2cc([O-])ccc12.[Na+].[Na+] [sodium fluorescein] | no areas of hyperfluorescence indicative of CNV | – | – | – | – | – | – | – |
| (S)-Methyl-2-naphthoylamino-3-(4-nitrophenyl)propionate [SB328437] | – | reduced | suppressed laser injury-induced CNV in wild-type mice in a dose-dependent fashion | 109±16 % of control | neither CCR3 Ab nor CCR3 receptor antagonist induced retinal toxicity | – | – | – |
| CCL11: CCR3 ligand eotaxin-1, recombinant human (Peprotech) | – | – | – | – | – | induced human CEC proliferation | induced actin polymerization | increased levels of activate Rac-1 GTPase |
| CCL26: CCR3 ligand eotaxin-3, recombinant human (Peprotech) | – | – | – | – | – | induced human CEC proliferation | induced actin polymerization | increased levels of activate Rac-1 GTPase |
| B1 | – | – | – | – | – | induced human CEC proliferation | induced actin polymerization | increased levels of activate Rac-1 GTPase |
